From ChEMBL document CHEMBL3526141, “Characterization of human liver enzymes involved in the biotransformation of boceprevir, a hepatitis C virus protease inhibitor” (Drug Metab Dispos, 2011)

Legend:
Liver cytosol [1] = test: Drug metabolism in human liver cytosol at 20 uM assessed as (1R,2S,5S)-N-((2R,3R)-4-amino-1-cyclobutyl-3-hydroxy-4-oxobutan-2-yl)-3-((S)-2-(3-tert-butylureido)-3,3-dimethylbutanoyl)-6,6-dimethyl-3-azabicyclo[3.1.0]hexane-2-carboxamide formation at 20 uM after 60 mins in presence of AKR inhibitor diazepam by LC-MS/MS/FSA method; format: ADME; details: 1 h
Cytochrome P450 1A1 = molecular target: T1, Cytochrome P450 1A1 (Homo sapiens, UniProt P04798); test: Drug metabolism assessed as human […]-mediated compound formation from 5 uM [14C]boceprevir after 120 mins by LC-MS/FSA method relative to total [14C]boceprevir; format: ADME; details: recombinant enzyme, 2 h
T1 sequence (P04798 whole entry): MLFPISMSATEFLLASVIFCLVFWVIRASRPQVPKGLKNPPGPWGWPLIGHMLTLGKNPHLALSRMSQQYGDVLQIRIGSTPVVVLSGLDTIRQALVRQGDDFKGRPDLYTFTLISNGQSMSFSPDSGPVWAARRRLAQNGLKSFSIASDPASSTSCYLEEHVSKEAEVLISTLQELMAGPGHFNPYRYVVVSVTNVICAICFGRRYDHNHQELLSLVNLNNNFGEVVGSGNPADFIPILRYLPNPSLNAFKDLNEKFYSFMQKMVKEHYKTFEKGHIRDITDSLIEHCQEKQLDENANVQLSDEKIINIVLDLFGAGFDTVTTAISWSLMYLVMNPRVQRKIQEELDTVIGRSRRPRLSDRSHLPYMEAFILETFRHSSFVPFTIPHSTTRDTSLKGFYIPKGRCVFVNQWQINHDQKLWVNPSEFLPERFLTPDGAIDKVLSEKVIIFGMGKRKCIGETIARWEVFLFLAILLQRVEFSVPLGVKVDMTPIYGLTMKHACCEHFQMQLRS

Cytochrome P450 3A5 [2] = molecular target: T2, Cytochrome P450 3A5 (Homo sapiens, UniProt P20815); test: Drug metabolism assessed as human CYP3A5-mediated compound formation from 20 uM [14C]boceprevir after 120 mins by LC-MS/FSA method relative to total [14C]boceprevir; format: ADME; details: recombinant enzyme, 2 h
T2 sequence (P20815 whole entry): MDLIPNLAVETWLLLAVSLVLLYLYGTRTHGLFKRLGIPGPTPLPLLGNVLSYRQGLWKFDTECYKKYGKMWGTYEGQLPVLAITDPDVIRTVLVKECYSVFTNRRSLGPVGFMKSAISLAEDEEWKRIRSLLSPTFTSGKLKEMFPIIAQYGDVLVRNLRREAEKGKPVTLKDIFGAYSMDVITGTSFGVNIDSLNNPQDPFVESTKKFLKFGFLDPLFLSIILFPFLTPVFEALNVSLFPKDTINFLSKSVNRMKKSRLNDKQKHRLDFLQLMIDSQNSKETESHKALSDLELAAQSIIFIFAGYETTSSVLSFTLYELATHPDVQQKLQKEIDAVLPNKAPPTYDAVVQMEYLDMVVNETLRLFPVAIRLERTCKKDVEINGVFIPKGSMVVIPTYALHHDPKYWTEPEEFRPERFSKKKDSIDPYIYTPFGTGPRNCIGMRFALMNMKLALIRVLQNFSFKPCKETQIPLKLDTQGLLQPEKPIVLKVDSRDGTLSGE

Liver cytosol [3] = test: Drug metabolism in human liver cytosol assessed as (1R,2S,5S)-N-((2R,3R)-4-amino-1-cyclobutyl-3-hydroxy-4-oxobutan-2-yl)-3-((S)-2-(3-tert-butylureido)-3,3-dimethylbutanoyl)-6,6-dimethyl-3-azabicyclo[3.1.0]hexane-2-carboxamide formation after 60 mins by LC-MS/MS/FSA method; format: ADME, tissue-based; details: 1 h
Cytochrome P450 3A5 [4] = molecular target: T2, Cytochrome P450 3A5; test: Drug metabolism assessed as human CYP3A5-mediated compound formation from 5 uM [14C]boceprevir after 120 mins by LC-MS/FSA method relative to total [14C]boceprevir; format: ADME; details: recombinant enzyme, 2 h
Liver microsome = test: Drug metabolism in human liver microsomes treated with 20 uM [14C]boceprevir assessed as compound formation by LC-MS/FSA method relative to total [14C]boceprevir; format: ADME
[5] = Retention time of the compound by LC-MS/MS method; format: physicochemical
[6] = (§1) Drug metabolism in human liver S9 fraction at 20 uM assessed as (1R,2S,5S)-N-((2S,3R)-4-amino-1-cyclobutyl-3-hydroxy-4-oxobutan-2-yl)-3-((S)-2-(3-tert-butylureido)-3,3-dimethylbutanoyl)-6,6-dimethyl-3-azabicyclo[3.1.0]hexane-2-carboxamide formation in presence of allopurinol by LC-MS/MS/FSA method; format: ADME, subcellular; details: s9, 20 µM
Liver cytosol [7] = test: Drug metabolism in human liver cytosol at 20 uM assessed as (1R,2S,5S)-N-((2S,3R)-4-amino-1-cyclobutyl-3-hydroxy-4-oxobutan-2-yl)-3-((S)-2-(3-tert-butylureido)-3,3-dimethylbutanoyl)-6,6-dimethyl-3-azabicyclo[3.1.0]hexane-2-carboxamide formation at 20 uM after 60 mins in presence of co-incubation with ritonavir by LC-MS/MS/FSA method; format: ADME; details: 1 h
[8] = Drug excretion in human feces; format: ADME; design: dosed compound name [14C]-SCH 534128
[9] = Drug metabolism in human liver S9 fraction at 20 uM assessed as (1R,2S,5S)-N-((2S,3R)-4-amino-1-cyclobutyl-3-hydroxy-4-oxobutan-2-yl)-3-((S)-2-(3-tert-butylureido)-3,3-dimethylbutanoyl)-6,6-dimethyl-3-azabicyclo[3.1.0]hexane-2-carboxamide formation in presence of BNPP by LC-MS/MS/FSA method; format: ADME, subcellular; details: s9, 20 µM
Liver cytosol [10] = test: Drug metabolism in human liver cytosol at 20 uM assessed as (1R,2S,5S)-N-((2S,3R)-4-amino-1-cyclobutyl-3-hydroxy-4-oxobutan-2-yl)-3-((S)-2-(3-tert-butylureido)-3,3-dimethylbutanoyl)-6,6-dimethyl-3-azabicyclo[3.1.0]hexane-2-carboxamide formation in presence of phenolphthalein by LC-MS/MS/FSA method; format: ADME
[11] = Drug excretion in human urine; format: ADME; design: dosed compound name [14C]boceprevir
[12] = as §1, with “mefenamic acid” for “allopurinol”; format: ADME, subcellular; details: s9, 20 µM
[13] = molecular target: T3, Aldo-keto reductase family 1 member C3 (Homo sapiens, UniProt P42330); test: Activity of human recombinant AKR1C3 expressed in HEK293 cells assessed as (1R,2S,5S)-N-((2S,3R)-4-amino-1-cyclobutyl-3-hydroxy-4-oxobutan-2-yl)-3-((S)-2-(3-tert-butylureido)-3,3-dimethylbutanoyl)-6,6-dimethyl-3-azabicyclo[3.1.0]hexane-2-carboxamide formation per mg protein after 120 mins in presence of NADPH by LC-MS/MS/FSA method; format: ADME, cell-based; details: hek293, 2 h
T3 sequence (P42330 whole entry): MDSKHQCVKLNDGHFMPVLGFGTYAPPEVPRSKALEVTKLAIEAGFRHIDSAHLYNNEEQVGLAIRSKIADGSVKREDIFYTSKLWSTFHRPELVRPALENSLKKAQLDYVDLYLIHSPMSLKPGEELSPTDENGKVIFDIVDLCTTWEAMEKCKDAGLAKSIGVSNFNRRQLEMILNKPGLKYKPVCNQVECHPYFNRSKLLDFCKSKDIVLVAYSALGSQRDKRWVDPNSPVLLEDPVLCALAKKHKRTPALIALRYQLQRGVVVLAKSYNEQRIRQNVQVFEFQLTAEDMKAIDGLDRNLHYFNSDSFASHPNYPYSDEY

[14] = molecular target: T4, Aldo-keto reductase family 1 member C2 (Homo sapiens, UniProt P52895); test: Drug metabolism in human recombinant AKR1C2 expressing HEK293 cells treated with 20 uM boceprevir assessed as 1 mM ibuprofen-mediated inhibition of AKR1C2-mediated metabolite formation after 120 mins in presence of NADPH by LC-MS/MS/FSA method; format: ADME, cell-based; design: interact cpd dose 1 mM; details: hek293, 2 h
T4 sequence (P52895 whole entry): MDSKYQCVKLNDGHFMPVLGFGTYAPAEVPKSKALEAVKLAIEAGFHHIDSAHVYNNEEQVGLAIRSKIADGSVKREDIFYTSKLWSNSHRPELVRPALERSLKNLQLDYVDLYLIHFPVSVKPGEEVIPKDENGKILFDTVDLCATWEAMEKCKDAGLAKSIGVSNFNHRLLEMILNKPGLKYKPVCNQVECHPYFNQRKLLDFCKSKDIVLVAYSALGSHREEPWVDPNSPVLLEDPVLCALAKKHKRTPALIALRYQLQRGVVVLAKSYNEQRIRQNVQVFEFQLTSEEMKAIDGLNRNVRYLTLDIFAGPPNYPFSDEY

Liver cytosol [15] = test: Drug metabolism in human liver cytosol treated with 20 uM [14C]boceprevir assessed as quercetin-mediated inhibition of metabolite formation by LC-MS/MS/FSA method; format: ADME, tissue-based
[16] = molecular target: T3, Aldo-keto reductase family 1 member C3; test: Drug metabolism in human recombinant […] HEK293 cells treated with 20 uM boceprevir assessed as 100 uM flufenamic acid-mediated inhibition of AKR1C3-mediated metabolite formation after 120 mins in presence of NADPH by LC-MS/MS/FSA method; format: ADME, cell-based; design: interact cpd dose 100 uM; details: hek293, 2 h

Structure (SMILES)	Compound recovery (Liver cytosol [1])	Compound recovery (Cytochrome P450 1A1)	Compound recovery (Cytochrome P450 3A5 [2])	Km (Liver cytosol [3])	Compound recovery (Cytochrome P450 3A5 [4])	Compound recovery (Liver microsome)	Retention_time [5]	Compound recovery [6]	Compound recovery (Liver cytosol [7])	Radiolabel recovery [8]	Compound recovery [9]	Compound recovery (Liver cytosol [10])	Radiolabel recovery [11]	Compound recovery [12]	Vmax [13]	inhibition (INH) [14]	Compound recovery (Cytochrome P450 3A5 [2]; BLD = below limit of detection)	inhibition (INH) (Liver cytosol [15])	inhibition (INH) [16]
CC(C)(C)NC(=O)N[C@H](C(=O)N1C[C@H]2[C@@H]([C@H]1C(=O)N[C@H](CC1CCC1)C(=O)C(N)=O)C2(C)C)C(C)(C)C	metabolite_not_detected	33.4%	19.67%	27.4 µM	2.19%	17.42%	44.6 min	–	–	–	–	–	–	–	–	–	–	–	–
CC(C)(C)NC(=O)N[C@H](C(=O)N1C[C@H]2[C@@H]([C@H]1C(=O)NC(CC1CCC1)C(=O)C(N)=O)C2(C)C)C(C)(C)C (some centres not stated) [BOCEPREVIR]	–	–	–	–	–	–	–	metabolite_detected	metabolite_detected	metabolite_not_detected	metabolite_not_detected	metabolite_not_detected	9.3%	metabolite_not_detected	639 pmol/min	–	–	–	–
CC(C)(C)NC(=O)N[C@H](C(=O)N1C[C@H]2[C@@H]([C@H]1C(=O)N[C@@H](CC1CCC1)[C@@H](O)C(N)=O)C2(C)C)C(C)(C)C	–	0.57%	–	–	–	0.6%	40.1 min	–	–	–	–	–	–	–	–	> 89%	BLD	< 30%	93%
